According to paper PMC8347162, “A Cyclic BMP-2 Peptide Upregulates BMP-2 Protein-Induced Cell Signaling in Myogenic Cells” (Polymers, 2021):
Read-outs that look alike come from different tables or passages of the source. Positions of bridges follow the written chain, without caps; N, C: chain ends. Residues, ends and D or L forms follow the SMILES beside them.

Molecular target: T1, BMPRII (Homo sapiens, UniProt Q13873)
T1 construct: purchased R&D
T1 sequence (Q13873 27-151 limits assumed): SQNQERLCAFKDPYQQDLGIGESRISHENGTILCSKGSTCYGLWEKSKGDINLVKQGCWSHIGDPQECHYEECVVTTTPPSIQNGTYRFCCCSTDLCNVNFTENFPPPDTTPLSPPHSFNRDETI
Assay: SPR binding of peptides to immobilized BMPRII
Details: for kon / koff: BMPRII immobilized on COOH5 chip (2000 RU), peptide injected 120 s at 5 μL/min, 5 min dissociation; for kon: read-out: Association Rate Constant ka; for koff: read-out: Dissociation Rate Constant kd
Procedure: SPR was performed using SensiQ discovery ((ICX Nomadics, Oklahoma City, OK, USA) SPR. For the affinity experiments, all the samples were dissolved in phosphate-buffered saline (PBS, pH 7.4) (UniRegion Bio-Tech, New Taipei City, Taiwan) containing 150 mM NaCl (St. Louis, MI, USA). The same buffer was also used as the running buffer. To immobilize the BMPRII, the active and reference flow cells of a COOH5 sensor chip (ICX Nomadics, Oklahoma City, OK, USA) carboxylic chip were activated with 1-ethyl-3-(3-(dimethylamino)-propyl) carbodiimide hydrochloride (EDC) and N-hydroxysuccinimide (NHS) (Cytiva, Marlborough, MA, USA) for 5 min. BMPRII protein diluted to 20 μg/mL with acetate buffer (pH4.5) (APOLO biochemical Inc., New York, NY, USA) was injected over the active cell for 3 min at 10 μL/min, resulting in an immobilization level of 2000 RU. Both the reference flow cell and active flow cell were blocked with ethanolamine (Bio Rad, Hercules, CA, USA), pH 8.5 for 6 min. The system was then switched to running buffer, and different concentrations of the peptide were injected for 120 s at 5 μL/min, with 5 min of dissociation. The binding data were analyzed using the BIA-evaluation software 3.0 (BIACORE, Uppasala, Sweden).
We first investigated the binding affinity of these five peptides for BMPRII using SPR. Each peptide was individually passed over a Sensiq […] chip pre-immobilized with BMPRII.

[1] = BMPRII immobilized on COOH5 chip, PBS pH 7.4 with 150 mM NaCl, P-02 from saturation binding curve, read-out: Equilibrium Rate Constant KD

kon (PBS pH 7.4 with 150 mM NaCl) [M⁻¹ s⁻¹] | koff (PBS pH 7.4 with 150 mM NaCl) [s⁻¹] | Kd [1] [µM] | Kd (as printed in text b26 without unit, read-out: equilibrium rate constant (KD) against BMPRII) [µM] | Compound
460 | 0.0106 | 23.1 | – | CC[C@H](C)[C@@H]1NC(=O)[C@H](C)NC(=O)[C@H](CO)NC(=O)[C@H](CC(C)C)NC(=O)[C@H](CCC(=O)O)NC(=O)[C@H]([C@@H](C)O)NC(=O)[C@@H]2CCCN2C(=O)[C@H](C(C)C)NC(=O)[C@@H](NC(=O)[C@H](CO)NC(=O)[C@H](CO)NC(=O)[C@H](C)NC(=O)[C@H](CCCCN)NC(=O)[C@@H]2CCCN2C(=O)[C@@H](NC(=O)[C@@H](N)CCCCN)[C@@H](C)CC)CSSC[C@@H](C(N)=O)NC(=O)[C@H](CC(C)C)NC(=O)[C@H](Cc2ccc(O)cc2)NC(=O)[C@H](CC(C)C)NC(=O)[C@H]([C@@H](C)O)NC(=O)[C@H](CO)NC1=O [P-04] (H-KIPKASSCVPTELSAISTLYLC-NH2; disulfide 8-22)
37.8 | 0.000487 | 12.9 | – | CC[C@H](C)[C@@H]1NC(=O)[C@H](C)NC(=O)[C@H](CO)NC(=O)[C@H](CC(C)C)NC(=O)[C@H](CCC(=O)O)NC(=O)[C@H]([C@@H](C)O)NC(=O)[C@@H]2CCCN2C(=O)[C@H](C(C)C)NC(=O)[C@H](CO)NC(=O)[C@H](CO)NC(=O)[C@H](C)NC(=O)[C@H](CCCCN)NC(=O)[C@@H]2CCCN2C(=O)[C@H]([C@@H](C)CC)NC(=O)[C@H](CCCCN)NC(=O)[C@@H](N)CSSC[C@@H](C(N)=O)NC(=O)[C@H](CC(C)C)NC(=O)[C@H](Cc2ccc(O)cc2)NC(=O)[C@H](CC(C)C)NC(=O)[C@H]([C@@H](C)O)NC(=O)[C@H](CO)NC1=O [P-05] (H-CKIPKASSVPTELSAISTLYLC-NH2; disulfide 1-22)

The remaining lines, values behind:

Compound | kon (PBS pH 7.4 with 150 mM NaCl) [M⁻¹ s⁻¹] | koff (PBS pH 7.4 with 150 mM NaCl) [s⁻¹] | Kd [1] [µM] | Kd (as printed in text b26 without unit, read-out: equilibrium rate constant (KD) against BMPRII) [µM]
CC[C@H](C)[C@H](NC(=O)[C@H](C)NC(=O)[C@H](CO)NC(=O)[C@H](CC(C)C)NC(=O)[C@H](CCC(=O)O)NC(=O)[C@@H](NC(=O)[C@@H]1CCCN1C(=O)[C@@H](NC(=O)[C@H](CO)NC(=O)[C@H](CO)NC(=O)[C@H](C)NC(=O)[C@H](CCCCN)NC(=O)[C@@H]1CCCN1C(=O)[C@@H](NC(=O)[C@@H](N)CCCCN)[C@@H](C)CC)C(C)C)[C@@H](C)O)C(=O)N[C@@H](CO)C(=O)N[C@H](C(=O)N[C@@H](CC(C)C)C(=O)N[C@@H](Cc1ccc(O)cc1)C(=O)N[C@@H](CC(C)C)C(N)=O)[C@@H](C)O [P-01] (H-KIPKASSVPTELSAISTLYL-NH2) | 0.27 | 0.0221 | – | –
CC[C@H](C)[C@H](NC(=O)[C@H](C)NC(=O)[C@H](CO)NC(=O)[C@@H]1CSSC[C@H](N)C(=O)N[C@@H](CCCCN)C(=O)N[C@@H]([C@@H](C)CC)C(=O)N2CCC[C@H]2C(=O)N[C@@H](CCCCN)C(=O)N[C@@H](C)C(=O)N[C@@H](CO)C(=O)N[C@@H](CO)C(=O)N[C@@H](C(C)C)C(=O)N2CCC[C@H]2C(=O)N[C@@H]([C@@H](C)O)C(=O)N[C@@H](CCC(=O)O)C(=O)N[C@@H](CC(C)C)C(=O)N1)C(=O)N[C@@H](CO)C(=O)N[C@H](C(=O)N[C@@H](CC(C)C)C(=O)N[C@@H](Cc1ccc(O)cc1)C(=O)N[C@@H](CC(C)C)C(N)=O)[C@@H](C)O [P-03] (H-CKIPKASSVPTELCSAISTLYL-NH2; disulfide 1-14) | 352 | 0.0333 | – | –
P-02: Cyclic disulfide BMP-2 peptide, N-terminal and C-terminal regions outside the cyclic structure (KIPKCSSVPTELSCISTLYL; not fully specified; Intramolecular disulfide Cys5-Cys14; probably C-terminal amide (Rink amide resin); Parent is BMP-2 mature 73-92 (offset +282) in the P) | – | – | 80.6 | 80.6
